Reference: patent US20180319810A1, “SUBSTITUTED BRIDGED UREA ANALOGS AS SIRTUIN MODULATORS” (GlaxoSmithKline Intellectual Property (No.2) Limited, priority 2014, published 2018)

These compounds were tested against T1, SIRT1 (Homo sapiens, UniProt Q96EB6) (assay: Trp mass spectrometry assay of SIRT1 activation). Settings: Trp peptide Ac-R-H-K-K(Ac)-W-NH2 0.5 μM, 120 μM βNAD+, 10 nM SIRT1, 25 min, 25° C.
T1 sequence (Q96EB6 1-747): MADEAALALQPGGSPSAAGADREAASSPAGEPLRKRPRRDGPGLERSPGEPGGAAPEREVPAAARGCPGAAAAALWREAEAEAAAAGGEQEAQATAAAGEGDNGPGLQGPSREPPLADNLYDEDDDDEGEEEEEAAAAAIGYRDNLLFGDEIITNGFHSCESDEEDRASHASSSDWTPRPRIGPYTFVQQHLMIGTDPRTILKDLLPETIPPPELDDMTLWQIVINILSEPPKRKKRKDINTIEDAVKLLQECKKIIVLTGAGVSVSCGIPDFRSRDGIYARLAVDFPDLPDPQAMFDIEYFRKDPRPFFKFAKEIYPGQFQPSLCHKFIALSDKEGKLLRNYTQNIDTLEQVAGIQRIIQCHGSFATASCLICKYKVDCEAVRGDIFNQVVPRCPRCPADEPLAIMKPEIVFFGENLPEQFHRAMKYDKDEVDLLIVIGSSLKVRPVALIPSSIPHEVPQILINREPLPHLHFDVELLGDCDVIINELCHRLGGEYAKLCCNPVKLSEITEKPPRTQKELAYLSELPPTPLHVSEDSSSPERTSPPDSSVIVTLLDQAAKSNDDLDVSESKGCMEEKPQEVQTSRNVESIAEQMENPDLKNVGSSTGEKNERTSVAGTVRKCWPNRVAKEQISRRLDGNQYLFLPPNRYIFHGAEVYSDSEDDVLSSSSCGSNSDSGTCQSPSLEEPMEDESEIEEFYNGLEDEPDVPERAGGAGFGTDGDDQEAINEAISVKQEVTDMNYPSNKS
Type: biochemical
In the case of `O=C(NC1CC1)c1ncc2c(n1)N(C(=O)Nc1ccccn1)[C@H]1CCCN2C1` [Example 116, (9S)—N2-cyclopropyl-N10-(pyridin-2-yl)-8,9-dihydro-6H-5,9-methanopyrimido[4,5-b][1,4]diazocine-2,10(7H)-dicarboxamide], the “TRP Activity (EC1.5, concentration of compound required to increase SIRT1 activity by 50% over control)” value was “C (EC1.5>25 μM)” and the “TRP MAX RESP (percent maximum fold activation relative to control)” value was “A (Fold activation ≥150%)”. In the case of `C[C@@H](NC(=O)c1ncc2c(n1)N(C(=O)Nc1cccc(OC[C@@H](O)CO)n1)[C@H]1CCCN2C1)C(F)(F)F` [Example 117, (9S)—N10-(6-((S)-2,3-dihydroxypropoxy)pyridin-2-yl)-N2-((R)-1,1,1-trifluoropropan-2-yl)-8,9-dihydro-6H-5,9-methanopyrimido[4,5-b][1,4]diazocine-2,10(7H)-dicarboxamide], the “TRP Activity (EC1.5, concentration of compound required to increase SIRT1 activity by 50% over control)” value was “B (EC1.5 1-25 μM)” and the “TRP MAX RESP (percent maximum fold activation relative to control)” value was “A (Fold activation ≥150%)”. In the case of `Cc1nc(C(=O)N[C@H](C)C(F)(F)F)nc2c1N1CCC[C@@H](C1)N2C(=O)Nc1ccc(OC[C@@H](O)CO)cn1` [Example 118, (9S)—N10-(5-((S)-2,3-dihydroxypropoxy)pyridin-2-yl)-4-methyl-N2-((R)-1,1,1-trifluoropropan-2-yl)-8,9-dihydro-6H-5,9-methanopyrimido[4,5-b][1,4]diazocine-2,10(7H)-dicarboxamide], the “TRP Activity (EC1.5, concentration of compound required to increase SIRT1 activity by 50% over control)” value was “A (EC1.5<1 μM)” and the “TRP MAX RESP (percent maximum fold activation relative to control)” value was “A (Fold activation ≥150%)”. `C[C@@H](NC(=O)c1ncc2c(n1)N(C(=O)Nc1ccc(OC[C@@H](O)CO)cn1)[C@H]1CCCN2C1)C(F)(F)F` [Example 119, (9S)—N10-(5-((S)-2,3-dihydroxypropoxy)pyridin-2-yl)-N2-((R)-1,1,1-trifluoropropan-2-yl)-8,9-dihydro-6H-5,9-methanopyrimido[4,5-b][1,4]diazocine-2,10(7H)-dicarboxamide] was tested, and the “TRP Activity (EC1.5, concentration of compound required to increase SIRT1 activity by 50% over control)” value was “A (EC1.5<1 μM)” and the “TRP MAX RESP (percent maximum fold activation relative to control)” value was “A (Fold activation ≥150%)”.
